The source of these data is US12637437B2, “Herbicidal compounds” (SYNGENTA CROP PROTECTION AG, priority 2021, dated 2026).

Common to all, as to type: in vivo
The subject of experiment [1] is Ipomoea hederacea (IPOHE). In words: Post-emergence herbicidal glasshouse test, IPOHE. The note with it: 125 g/h, evaluated after 13 days, five-point scale. The method in brief:
(§1)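 Pots of standard soil were sown and sprayed 1 day after sowing (pre-emergence) or after 8 days' growth (post-emergence). Spray was acetone/water (50:50) with 0.5% Tween 20, applied at 125 g/h unless otherwise indicated. Glasshouse at 24/16 °C day/night, 14 h light, 65% humidity. Damage was scored after 13 days on a five-point scale (5=80-100%, 1=0-19%).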

Experiment [2] concerns Setaria faberi (SETFA). In words: Post-emergence herbicidal glasshouse test, SETFA. The note with it: 125 g/h, evaluated after 13 days, five-point scale. The method in brief: as §1
In experiment [3] the test system is Amaranthus retoflexus (AMARE). In words: Pre-emergence herbicidal glasshouse test, AMARE. The settings on record: 125 g/h, evaluated after 13 days, five-point scale. The method in brief: as §1
Experiment [4] deals with Ipomoea hederacea (IPOHE). In words: Pre-emergence herbicidal glasshouse test, IPOHE. The note with it: 125 g/h, evaluated after 13 days, five-point scale. The method in brief: as §1
The test system of experiment [5] is Echinochloa crus-galli (ECHCG). In words: Pre-emergence herbicidal glasshouse test, ECHCG. The note with it: 125 g/h, evaluated after 13 days, five-point scale. In outline: as §1
The subject of experiment [6] is Amaranthus retoflexus (AMARE). Description: Post-emergence herbicidal glasshouse test, AMARE. The arrangement: dose or concentration left out as unconfirmed. The note with it: evaluated after 13 days, five-point scale. The method in brief:
as §1

In experiment [7] the test system is Abutilon theophrasti (ABUTH). In words: Post-emergence herbicidal glasshouse test, ABUTH. The settings on record: 125 g/h, evaluated after 13 days, five-point scale. As for the experimental part: (§2) Seeds of a variety of test species are sown in standard soil in pots (Lolium perenne (LOLPE), Amaranthus retoflexus (AMARE), Abutilon theophrasti (ABUTH), Setaria faberi (SETFA), Echinochloa crus-galli (ECHCG), Ipomoea hederacea (IPOHE)). After cultivation for one day (pre-emergence) or after 8 days cultivation (post-emergence) under controlled conditions in a glasshouse (at 24/16° C., day/night; 14 hours light; 65% humidity), the plants are sprayed with an aqueous spray solution derived from the formulation of the technical active ingredient in acetone/water (50:50) solution containing 0.5% Tween 20 (polyoxyethelyene sorbitan monolaurate, CAS RN 9005-64-5). Compounds are applied at 125 g/h unless otherwise indicated. The test plants are then grown in a glasshouse under controlled conditions in a glasshouse (at 24/16° C., day/night; 14 hours light; 65% humidity) and watered twice daily. After 13 days for pre and post-emergence, the test is evaluated for the percentage damage caused to the plant. The biological activities are shown in the following table on a five-point scale (5=80-100%; 4=60-79%; 3=40-59%; 2=20-39%; 1=0-19%). “—” denotes not tested on this species or data not captured.

Experiment [8] relates to Echinochloa crus-galli (ECHCG). In words: Post-emergence herbicidal glasshouse test, ECHCG. The settings on record: 125 g/h, evaluated after 13 days, five-point scale. In outline:
as §1

The test system of experiment [9] is Abutilon theophrasti (ABUTH). In words: Pre-emergence herbicidal glasshouse test, ABUTH. The settings on record: 125 g/h, evaluated after 13 days, five-point scale. As to the method: as §2
The subject of experiment [10] is Setaria faberi (SETFA). In words: Pre-emergence herbicidal glasshouse test, SETFA. The settings on record: 125 g/h, evaluated after 13 days, five-point scale. The method in brief:
as §1

`CCOC(=O)Nc1c(OC(F)F)ccc(C(=O)Nc2nnnn2CC)c1Cl` [Compound 1.009]: the “percentage damage caused to the plant, POST Application IPOHE” value in experiment [1] was 4 (4=60-79%). Moreover, in [2], the “percentage damage caused to the plant, POST Application SETFA” value is given as 3 (3=40-59%). Also, the “percentage damage caused to the plant, PRE Application AMARE” value in experiment [3] is on record as 5 (5=80-100%). Moreover, in experiment [4], the “percentage damage caused to the plant, PRE Application IPOHE” value was 4 (4=60-79%). In addition, the “percentage damage caused to the plant, PRE Application ECHCG” value in experiment [5] is 4 (4=60-79%). For the same molecule, the “percentage damage caused to the plant, POST Application AMARE” value in experiment [6] is 4 (4=60-79%). Further, in experiment [7], the “percentage damage caused to the plant, POST Application ABUTH” value is recorded as 4 (4=60-79%). For the same molecule, the “percentage damage caused to the plant, POST Application ECHCG” value in experiment [8] was 5 (5=80-100%). Also, the “percentage damage caused to the plant, PRE Application ABUTH” value in experiment [9] is 5 (5=80-100%). Also, the “percentage damage caused to the plant, PRE Application SETFA” value in experiment [10] was 3 (3=40-59%).
